In US11492405B2, “Reducing systemic regulatory t cell levels or activity for treatment of disease and injury of the CNS” (Yeda Research and Development Co. Ltd, priority 2014, dated 2022):
Entries after “also recorded” stand apart in the source; their conditions may differ.

Tests used:
Assay type in all cases: in vivo, mouse
[1] = tested on: 5XFAD AD-Tg mice; assay: RT-qPCR of choroid plexus (CP) in 5XFAD AD-Tg mice
Experimental: Total RNA of the hippocampal dentate gyrus (DG) was extracted with TRI Reagent (Molecular Research Center) and purified from the lysates using an RNeasy Kit (Qiagen). Total RNA of the choroid plexus was extracted using an RNA MicroPrep Kit (Zymo Research). mRNA (1 μg) was converted into cDNA using a High Capacity cDNA Reverse Transcription Kit (Applied Biosystems). The expression of specific mRNAs was assayed using fluorescence-based quantitative real-time PCR (RT-qPCR). RT-qPCR reactions were performed using Fast-SYBR PCR Master Mix (Applied Biosystems). Quantification reactions were performed in triplicate for each sample using the standard curve method. Peptidylprolyl isomerase A (ppia) was chosen as a reference (housekeeping) gene. The amplification cycles were 95° C. for 5 s, 60° C. for 20 s, and 72° C. for 15 s. […] For ifn-γ and ppia gene analysis, the cDNA was pre-amplified in 14 PCR cycles with non-random PCR primers, thereby increasing the sensitivity of the subsequent real-time PCR analysis, according to the manufacturer's protocol (PreAmp Master Mix Kit; Applied Biosystems). mRNA expression was determined using TaqMan RT-qPCR, according to the manufacturer's instructions (Applied Biosystems). All RT-qPCR reactions were performed and analyzed using StepOne software V2.2.2 (Applied Biosystems). […]

[2] = tested on: 5XFAD AD-Tg mice; assay: Immune cell / mo-Mϕ infiltration of brain in 5XFAD AD-Tg mice (flow cytometry, BM chimeras)
Experimental: Tissue processing and immunohistochemistry were performed on paraffin embedded sectioned mouse (6 μm thick) and human (10 μm thick) brains. For human ICAM-1 staining, primary mouse anti-ICAM (1:20 Abcam; ab2213) antibody was used. Slides were incubated for 10 min with 3% H2O2, and a secondary biotin-conjugated anti-mouse antibody was used, followed by biotin/avidin amplification with Vectastain ABC kit (Vector Laboratories). Subsequently, 3,3′-diaminobenzidine (DAB substrate) (Zytomed kit) was applied; slides were dehydrated and mounted with xylene-based mounting solution. For tissue stainings, mice were transcardially perfused with PBS prior to tissue excision and fixation. CP tissues were isolated under a dissecting microscope (Stemi DV4; Zeiss) from the lateral, third, and fourth ventricles of the brain. For whole mount CP staining, tissues were fixated with 2.5% paraformaldehyde (PFA) for 1 hour at 4° C., and subsequently transferred to PBS containing 0.05% sodium azide. Prior to staining, the dissected tissues were washed with PBS and blocked (20% horse serum, 0.3% Triton X-100, and PBS) for 1 h at room temperature. Whole mount staining with primary antibodies (in PBS containing 2% horse serum and 0.3% Triton X-100), or secondary antibodies, was performed for 1 h at room temperature. Each step was followed by three washes in PBS. The tissues were applied to slides, mounted with Immu-mount (9990402, from Thermo Scientific), and sealed with cover-slips. For staining of sectioned brains, two different tissue preparation protocols (paraffin embedded or microtomed free-floating sections) were applied, as previously described (Baruch et al, 2013; Kunis et al, 2013). The following primary antibodies were used: mouse anti-Aβ (1:300, Covance, #SIG-39320); rabbit anti-GFP (1:100, MBL, #598); rat anti-CD68 (1:300, eBioscience, #14-0681); rat anti-ICAM-1 (1:200, Abcam, #AB2213); goat anti-GFP (1:100, Abcam, #ab6658); rabbit anti-IBA-1 (1:300, Wako, #019-19741); goat anti-IL-10 (1:20, R&D systems, #AF519); rat anti-Foxp3 (1:20, eBioscience, #13-5773-80); rabbit anti-CD3 (1:500, Dako, #IS503); mouse anti-ZO-1, mouse anti-E-Cahedrin, and rabbit anti-Claudin-1 (all 1:100, Invitrogen, #33-9100, #33-4000, #51-9000); rabbit anti-GFAP (1:200, Dako, #Z0334). […] Microscopic analysis, was performed using a fluorescence microscope (E800; Nikon) or laser-scanning confocal microscope (Carl Zeiss, Inc.). The fluorescence microscope was equipped with a digital camera (DXM 1200F; Nikon), and with either a 20×NA 0.50 or 40×NA 0.75 objective lens (Plan Fluor; Nikon). […] For quantification of staining intensity, total cell and background staining was measured using ImageJ software (NIH), and intensity of specific staining was calculated, as previously described (Burgess et al, 2010). […]

[3] = tested on: 5XFAD AD-Tg mice; assay: RT-qPCR of hippocampus / brain parenchyma in 5XFAD AD-Tg mice
Experimental: Total RNA of the hippocampal dentate gyrus (DG) was extracted with TRI Reagent (Molecular Research Center) and purified from the lysates using an RNeasy Kit (Qiagen). Total RNA of the choroid plexus was extracted using an RNA MicroPrep Kit (Zymo Research). mRNA (1 μg) was converted into cDNA using a High Capacity cDNA Reverse Transcription Kit (Applied Biosystems). The expression of specific mRNAs was assayed using fluorescence-based quantitative real-time PCR (RT-qPCR). RT-qPCR reactions were performed using Fast-SYBR PCR Master Mix (Applied Biosystems). Quantification reactions were performed in triplicate for each sample using the standard curve method. Peptidylprolyl isomerase A (ppia) was chosen as a reference (housekeeping) gene. The amplification cycles were 95° C. for 5 s, 60° C. for 20 s, and 72° C. for 15 s. At the end of the assay, a melting curve was constructed to evaluate the specificity of the reaction. For ifn-γ and ppia gene analysis, the cDNA was pre-amplified in 14 PCR cycles with non-random PCR primers, thereby increasing the sensitivity of the subsequent real-time PCR analysis, according to the manufacturer's protocol (PreAmp Master Mix Kit; Applied Biosystems). mRNA expression was determined using TaqMan RT-qPCR, according to the manufacturer's instructions (Applied Biosystems). All RT-qPCR reactions were performed and analyzed using StepOne software V2.2.2 (Applied Biosystems). The following TaqMan Assays-on-Demand™ probes were used: Mm02342430_g1 (ppia) and Mm01168134_m1 (ifn-γ).
For all other genes examined, the following primers were used: […]

[4] = weekly-GA vs untreated AD-Tg mice, age 6 m
[5] = AD-Tg/Foxp3-DTR+ mice, 3 weeks after last DTx injection

Substance: Glatiramer acetate [GA]
- CP epithelial expression of leukocyte trafficking molecules (icam1, cxcl10, ccl2) ([1]; weekly-GA, end of 1st or 4th week): upregulated
- numbers of CD11bhighCD45high-expressing cells in hippocampus ([2]; 2nd week of weekly-GA regimen, non-chimeric AD-Tg mice): increased numbers
- homing of GFP+ mo-Mϕ to the CP and adjacent ventricular spaces ([2]; weekly-GA vs vehicle, AD-Tg/CX3CR1GFP/+ BM chimeras): increased homing
- neuroinflammation (hippocampal mRNA) ([3]; weekly-GA 100 μg s.c. over 4 weeks, 5XFAD AD-Tg mice): reduced neuroinflammation
- hippocampal mRNA expression of anti-inflammatory cytokines IL-10 and TGF-β [3, 4]: elevation
- hippocampal mRNA expression of neurotropic factors IGF-1 and BDNF [3, 4]: elevation
- hippocampal mRNA expression of pro-inflammatory cytokines TNF-α, IL-1β and IL-12p40 [3, 4]: reduced expression

Substance: Diphtheria toxin [DTx]
- CP mRNA expression of leukocyte trafficking molecules (icam1, cxcl10, ccl2) ([1]; AD-Tg/DTR+ vs DTx-treated AD-Tg/DTR− littermates, 1 day after last DTx injection): elevated mRNA expression
- Foxp3+ Tregs among CD4+ T cells accumulated within the brain [2, 5]: marked enrichment
- numbers of CD45high/CD11bhigh mo-Mϕ and CD4+ T cells in brain parenchyma [2, 5]: increased numbers; also recorded: elevated numbers
- foxp3 and il10 mRNA expression in hippocampus [3, 5]: increased expression
- mRNA expression of pro-inflammatory cytokines il-12p40 and tnf-α in brain parenchyma [3, 5]: reduced mRNA expression levels
